Values joined by “and” are separate entries in the source; they are usually repeats but may differ in a detail not shown here. Equal entries are not always repeated.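 Interpolation was linear, between the two tested concentrations surrounding the appropriate level; five concentrations were tested over 48 hours in 96-well plates. GI50 is the concentration that inhibits growth by half. The concentration for full growth arrest is given as TGI.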
Experiments:
Assay in all cases: NCI-60 cell line screen, 48 h
HCT-15 colon = system: HCT-15 colon
UACC-62 melanoma = system: UACC-62 melanoma
RXF 393 renal = system: RXF 393 renal
CCRF-CEM leukemia = system: CCRF-CEM leukemia
KM12 colon = system: KM12 colon
SF-268 CNS = system: SF-268 CNS
A549 NSCLC = system: A549 NSCLC
HOP-62 NSCLC = system: HOP-62 NSCLC
OVCAR-8 ovarian = system: OVCAR-8 ovarian
BT-549 breast = system: BT-549 breast

| Compound | GI50 (HCT-15 colon) [nM] | TGI (HCT-15 colon) | GI50 (UACC-62 melanoma) [nM] | TGI (UACC-62 melanoma) [nM] | GI50 (RXF 393 renal) [nM] | GI50 (CCRF-CEM leukemia) [nM] | TGI (CCRF-CEM leukemia) [nM] | GI50 (KM12 colon) [nM] | TGI (KM12 colon) [nM] | GI50 (SF-268 CNS) [nM] | GI50 (A549 NSCLC) [nM] | TGI (A549 NSCLC) [nM] | GI50 (HOP-62 NSCLC) [nM] | TGI (HOP-62 NSCLC) [nM] | GI50 (OVCAR-8 ovarian) [nM] | GI50 (BT-549 breast) [nM] | TGI (BT-549 breast) [nM] | TGI (SF-268 CNS) [nM] | TGI (OVCAR-8 ovarian) [nM] | TGI (RXF 393 renal) [nM] |
| --- | --- | --- | --- | --- | --- | --- | --- | --- | --- | --- | --- | --- | --- | --- | --- | --- | --- | --- | --- | --- |
| COc1cc2c(c(OC)c1OC)-c1ccc(SC)c(=O)cc1C(CO)C2 (stereo not given) | < 10 | 723 nM and 1300 nM | < 10 | 15700 | < 10 | < 10 | 2270 | < 10 | 79 | < 10 | < 10 | > 100000 | < 10 | > 100000 | < 10 | – | – | – | – | – |
| COc1ccc2nc3cccc([N+](=O)[O-])c3c(NCCCCCC(=O)O)c2c1 | 25.1 | – | 183 | 465 | – | 39.7 | 302 | 26.2 | 220 | 75.5 | 120 | 2170 | 27.7 | 187 | 87.7 | 131 | 422 | 701 | 2220 | – |
| Nc1ccnc(=O)[nH]1 | – | > 100000 nM | – | > 100000 | – | – | > 100000 | – | > 100000 | – | – | > 100000 | – | > 100000 | – | – | – | > 100000 | > 100000 | > 100000 |
| CC(=O)CC(=O)OC1CC(C)CCC1C(C)C (stereo not given) | – | > 100000 nM | – | > 100000 | – | – | 44000 | – | > 100000 | – | – | > 100000 | – | > 100000 | – | – | – | > 100000 | > 100000 | > 100000 |
| OC(c1ccccc1)(c1ccccc1)c1ccncc1 | – | > 100000 nM | – | > 100000 | – | – | > 100000 | – | > 100000 | – | – | > 100000 | – | > 100000 | – | – | – | > 100000 | > 100000 | > 100000 |
| CCc1cc(C(=O)OC)cn1C(=N)c1ccc(Cl)cc1 | – | > 100000 nM | – | > 100000 | – | – | > 100000 | – | > 100000 | – | – | > 100000 | – | > 100000 | – | – | – | > 100000 | > 100000 | – |
| C[C@H]1[C@H](C)CC[C@]2(CO)CC[C@]3(C)C(=CC[C@@H]4[C@@]5(C)CCCNC(C)(C)[C@@H]5CC[C@]43C)[C@H]12 | 1370 | 2750 nM | 1850 | 3350 | 1810 | 1740 | 3930 | 1840 | 3510 | 1790 | 1740 | 3280 | 1810 | 3430 | 1960 | – | – | 3500 | 3610 | 3510 |
| COc1cnc2c(c1)C(=O)c1c-2n(CCCn2ccnc2)c(=O)c2cc(F)ccc12 | 155 | 1560 nM | – | – | 30.9 | – | – | 58.9 | 1570 | – | 20.9 | 1500 | < 10 | 176 | 15.1 | 68.8 | 2860 | – | 13900 | 171 |
| Cn1cc(C(=O)NCCC(=N)N)cc1NC(=O)C1=[N+](C)C=C(NC(=O)c2cccc(C(=O)NC3=CC(C(=O)Nc4cc(C(=O)NCCC(=N)N)cn4C)=[N+](C)C3)c2)C1 | – | > 100000 nM | – | > 100000 | – | – | > 100000 | – | > 100000 | – | – | > 100000 | – | > 100000 | – | – | – | > 100000 | > 100000 | > 100000 |
| CCOC(=O)N1CCN(C=S)CC1 | – | > 100000 nM | – | > 100000 | – | – | > 100000 | – | > 100000 | – | – | > 100000 | – | > 100000 | – | – | – | > 100000 | > 100000 | > 100000 |
| CCCCNc1nc(C#N)c(N)s1 | – | > 100000 nM | – | > 100000 | – | – | – | – | > 100000 | – | – | > 100000 | – | > 100000 | – | – | – | > 100000 | > 100000 | – |
| COc1cc(/C=C2/C(=O)N(C(=O)OCC(C)C)C(Cc3cc(OC)c(OC)c(C)c3OC)C(=O)N2Cc2ccccc2)c(OC)c(C)c1OC (stereo not given) | – | – | – | > 100000 | – | – | > 100000 | – | > 100000 | – | – | > 100000 | – | > 100000 | – | – | – | > 100000 | > 100000 | > 100000 |
| CCN(CC)c1c(C(=O)/C=C/c2ccc(OC)cc2)c(-c2ccccc2)nn(C)c1=O | – | – | – | 28500 | – | – | 45600 | – | 37100 | – | – | 81000 | – | > 100000 | – | – | – | 73100 | > 100000 | 25000 |
| COc1cc(C(=O)O[C@H](C(=O)NCCCCCNC(=O)[C@@H](OC(=O)c2cc(OC)cc3c(C)cccc23)[C@]2(C)CO2)[C@]2(C)CO2)c2cccc(C)c2c1 | 174 | 2130 nM | 530 | 1080 | < 10 | – | – | 500 | 1410 | < 30.4 | 447 | 10200 | < 10 | 157 | – | 1130 | 5800 | 920 | – | 25 |
| COC1CC(OS(=O)(=O)c2ccc([N+](=O)[O-])cc2)C(OC(=O)c2ccccc2)C(C)O1 (stereo not given) | – | > 100000 nM | – | > 100000 | – | – | > 100000 | – | > 100000 | – | – | > 100000 | – | > 100000 | – | – | – | > 100000 | > 100000 | > 100000 |
| O=C(O)CNC(=O)c1ccc(-c2ccccc2)cc1 | – | > 100000 nM | – | > 100000 | – | – | > 100000 | – | > 100000 | – | – | > 100000 | – | > 100000 | – | – | – | > 100000 | > 100000 | > 100000 |
| CC(C)(C)n1cc(-c2ccnc(NCCCNS(=O)(=O)c3ccc(C(F)(F)F)cc3)c2)c(-c2cccc(O)c2)n1 | 1470 | 2930 nM | 1690 | 3230 | 1460 | – | – | – | – | – | 2020 | 4580 | 1930 | 3850 | 2460 | 1610 | 3050 | – | 6440 | 2890 |
| CN(CCCn1c2c(c3ccccc3c1=O)C(=O)c1ccccc1-2)CCCn1c2c(c3ccccc3c1=O)C(=O)c1ccccc1-2 | 229 | 2620 nM | 3080 | 45300 | – | – | – | 150 | 1050 | 1640 | 1130 | 4210 | – | – | – | 22000 | 83100 | > 100000 | – | – |

Source: PubChem BioAssay (NCI)
